# Data taken from US20120283175A1, “ANTIBACTERIAL COMPOSITIONS” (Achaogen, Inc., priority 2009, published 2012).
# “And” between values parts separate entries of the source, which are not always exact repeats. Equal entries are not always repeated. Where two headings read alike, the source gives them in different places.
# Key:
# gram negative bacteria = assay: Checkerboard synergy score at fractions of the antibacterial agent's MIC, with LpxCi-1, -2, -3; type: cell-based; set-up: scale not given here
# Protocol: Partial or full inhibition of LpxC should compromise the outer membrane and thus allow these synergizing agents to enter the cells and exert an antibacterial effect at concentrations where cells untreated with an LpxC inhibitor are unaffected. As a first step, checkerboard synergy assays for a variety of antibacterial agents were perform with several LpxC inhibitors, on several species of gram negative bacteria.
# (§1) Bacterial isolates were cultivated from −70° C. frozen stocks of the indicated strains by overnight passages at 35° C. in ambient air on Mueller-Hinton agar (Beckton Dickinson, Franklin Lakes, N.J.). Minimum Inhibitory Concentrations (MICs) were determined by the broth microdilution method in accordance with the Clinical and Laboratory Standards Institute (CLSI) guidelines. In brief, organism suspensions were adjusted to a 0.5 McFarland standard to yield a final inoculum between 3×10^5 and 7×10^5 colony-forming units (CFU)/mL. Drug dilutions and inocula were made in sterile, cation adjusted Mueller-Hinton Broth (Beckton Dickinson). An inoculum volume of 100 μL was added to wells containing 100 μL of broth with 2-fold serial dilutions of drug. All inoculated microdilution trays were incubated in ambient air at 35° C. for 18-24 hours. Following incubation, the lowest concentration of the drug that prevented visible growth (OD600 nm <0.05) was recorded as the MIC.
# K. pneumo. (ATCC43816) = assay: Neutropenic thigh in vivo efficacy model (mice); set-up: species or system Klebsiella pneumoniae; Static Dose, LpxC cmpd / Static Dose, LpxC in combination: unit not given here; details: for Static Dose, LpxC cmpd: LpxC compound alone; for Static Dose, LpxC in combination: combination agent Vanco (440 mg/kg/day)
# From the text: (§2) The model was run essentially as described by Craig and others (see Gudmundsson et al., “Murine Thigh Infection Model,” Handbook of Animal Models of Infection, M. A. Sande and O. Zak, Eds.; London: Academic Press, 1999, pp 137-144). Briefly, mice were rendered neutropenic prior to infection with 2 doses of cyclophosphamide, and then infected intramuscularly in the thigh with inocula of 10^3-10^5 CFU of either K. pneumo. (ATCC43816) or P. aeruginosa (ATCC27853). Antibiotics or vehicle alone as a negative control were administered twice at 2 hrs and 14 hrs post-infection. The animals were kept neutropenic for the duration of the experiment in order to minimize the effect of white blood cells on the infection such that the microbiological readout measures the in vivo interaction of drugs and bacteria. At 24 hrs post-infection, thighs were harvested, homogenized, and plated to measure the number of CFUs surviving per thigh. Thighs from a subset of animals were also harvested 2 hrs post-infection to record the CFUs present just prior to the first antibiotic treatment (pre-treatment).
# [1] = test system: Klebsiella pneumoniae (ATCC 43816); type: in vivo; details: for Mean CFU/g thigh muscle (SEM): normal plates; for Mean CFU/g thigh muscle (SEM) / CFU/Drug Plate - Dilution 10^0 / CFU/Drug Plate - Dilution 10^−1: Vancomycin 25 mg/kg, LpxC-i 35 mg/kg; for CFU/Drug Plate - Dilution 10^0 / CFU/Drug Plate - Dilution 10^−1: per animal N 1-5; for CFU/Drug Plate - Dilution 10^0: key: +: Too many colonies to permit accurate counting
# Protocol: Vancomycin and LpxCi-5 were dissolved in 30% HPβCD (2-hydroxypropyl-β-cyclodextrin). Test substances were each administered subcutaneously (SC) singly or in combination to test animals at 2 hours and 14 hours after bacterial inoculation then bid daily for a total of 1, 2, 3 or 7 day(s). The dosing volume was 5 mL/kg.
# Groups of 5 or 10 male specific-pathogen-free CD-1 (Crl.) mice weighing 24±2 g were used. Animals were immunosuppressed by two or three intraperitoneal injections of cyclophosphamide, the first at 150 mg/kg 4 days before infection (day −4) and the second or third at 100 mg/kg 1 day before or 3 days after infection (day −1 or +3). On day 0, animals were inoculated intramuscularly (0.1 mL/thigh) into the right thigh with a specific number (1.35×10^7 CFU/mouse) of Klebsiella pneumoniae (ATCC 43816). Vehicle and test substances (singly or in combination) were each administered subcutaneously 2 hours and 14 hours after inoculation then bid for a total of 1, 2, 3 or 7 consecutive day(s). Groups at 24, 48, 72 hours and day 8 hours after treatment as the designated time of harvest, muscle of the right thigh was harvested from each of the survival test animals. An additional group with no treatment, at 2 hours after inoculation, the muscle of the right thigh was harvested and viable CFU on agar plates with or without drug were quantified by standard methods. Animals in groups designated for Day 8 harvest are 10 mice and daily tally of survivors were kept until harvest and recorded. A non-infected group was just treated with LpxCi-5 and kept out to Day 8 and then harvested. The removed muscle tissues were then homogenized in 3˜4 mL of PBS, pH 7.4, with a ceramic mortar. Homogenates of 0.1 mL were used for serial 10-fold dilutions and plated on Muller-Hinton Broth in 1.5% Bacto agar and plated in parallel with drug plates for CFU determination. The original inoculum was adjusted to 2×10^8 CFU/0.1 mL and then plated onto the 3 different drug plates of LpxCi-5 for CFU count.
# The immunity of animals treated with vehicle or vancomycin alone was suppressed by two intraperitoneal injections of cyclophosphamide, the first was at 150 mg/kg 4 days before infection (day −4) and the second was at 100 mg/kg 1 day before infection (day −1). On day 0, test compound and vehicle were each administered subcutaneously at 2 and 14 hrs after animals were inoculated intramuscularly (0.1 mL/thigh) with 1.35×10^7 CFU/mouse of Klebsiella pneumoniae (ATCC 43816).
# (§3) The immunity of animals treated with LpxCi-5 alone was suppressed by two or three intraperitoneal injections of cyclophosphamide, the first was at 150 mg/kg 4 days before infection (day −4); the second and the third was at 100 mg/kg 1 day before and three days after infection (day −1 and day +3). On day 0, test compound were each administered subcutaneously bid at 2 and 14 hrs after animals were inoculated intramuscularly (0.1 mL/thigh) with 1.35×10^7 CFU/mouse of Klebsiella pneumoniae (ATCC 43816) for one, two, three or seven consecutive days. At 24, 48, 72 hours or at day 8 after treatment, muscle of the right thigh was harvested from each of the test animals for CFU determination in normal and drug plates.
# as §3, with “both vancomycin and the LpxC inhibitor, LpxCi-5,” for “LpxCi-5 alone”, “compounds in combination” for “compound”, “days.” for “days. At 24, 48, 72 hours or at day 8 after treatment, muscle of the right thigh was harvested from each of the test animals for CFU determination in normal and drug plates.”
# [2] = test system: P. aeruginosa (ATCC27853)
# From the text: as §2
# This table focuses on the sensitive part of the LpxCi-4 dose response curve (30 mg/kg) by examining the mean log CFU at 0 or 24 hours, as well as the log change in CFU at 24 hours relative to zero hours (“ΔLogCFU vs […]”). Data is given for animals treated with vehicle, LpxCi-4 at 30 mg/kg, a second agent alone at the indicated doses or the combination of LpxCi-4 at 30 mg/kg plus the second agent at the indicated dose. The standard errors for each measurement are also given (n=5 animals/group). By comparing the observed drop in CFU of the combination with the sum of the drop in CFU associated with each of the two agents given separately, one can determine whether the combination is, in fact, synergistic in vivo.
# envA1 (D22) E. coli = assay: MIC by broth microdilution, isogenic envA1 mutant strain; type: cell-based; details: Strain envA1 (D21)
# Protocol: as §1
# [3] = with LpxCi-3, antibacterial agent at 1/16 MIC
# [4] = with LpxCi-3, antibacterial agent at 1/64 MIC
# [5] = with LpxCi-3, antibacterial agent at ¼ MIC
# [6] = strain 27853, combination agent Vanco
compound,measurement,setting,value
O=C(O)c1cn(C2CC2)c2cc(N3CCNCC3)c(F)cc2c1=O [Ciprofloxacin],Synergy Score,gram negative bacteria; [3],1.06
same,Synergy Score,gram negative bacteria; [4],1.02
same,Synergy Score,gram negative bacteria; [5],1.25
"C[C@@H](O)[C@H]1C(=O)N2C(C(=O)O)=C(SCCN=CN)C[C@H]12 [Imipenem, imipenem]",Synergy Score,"gram negative bacteria; with LpxCi-1, antibacterial agent at 1/16 MIC",0.40
same,Synergy Score,"gram negative bacteria; with LpxCi-1, antibacterial agent at 1/64 MIC",.035
same,Synergy Score,"gram negative bacteria; with LpxCi-1, antibacterial agent at ¼ MIC",0.58
same,Synergy Score,"gram negative bacteria; with LpxCi-2, antibacterial agent at 1/16 MIC",1.06
same,Synergy Score,"gram negative bacteria; with LpxCi-2, antibacterial agent at 1/64 MIC",1.02
same,Synergy Score,"gram negative bacteria; with LpxCi-2, antibacterial agent at ¼ MIC",1.25
same,Synergy Score,gram negative bacteria; [3],0.17
same,Synergy Score,gram negative bacteria; [4],0.13
same,Synergy Score,gram negative bacteria; [5],0.36
"C[C@@H](O)[C@H](NC(=O)c1ccc(C#Cc2ccc(CN3CCOCC3)cc2)cc1)C(=O)NO [LpxCi-3, N-((2S,3R)-3-hydroxy-1-(hydroxyamino)-1-oxobutan-2-yl)-4-((4-(morpholinomethyl)phenyl)ethynyl)benzamide]",in vivo synergy with vancomycin,K. pneumo. (ATCC43816); bacterial strain ATCC43816,in vivo synergy
same,"Static Dose, LpxC cmpd",K. pneumo. (ATCC43816); strain 43816,>1000
same,"Static Dose, LpxC in combination",K. pneumo. (ATCC43816); strain 43816,107
"CC(C)(N)[C@H](NC(=O)c1ccc(C#C/C=C/C2CC2)cc1)C(=O)NO [LpxCi-5, (S,E)-N-(3-amino-1-(hydroxyamino)-3-methyl-1-oxobutan-2-yl)-4-(4-cyclopropylbut-3-en-1-ynyl)benzamide]",Mean CFU/g thigh muscle (SEM),"[1]; 24 hr, SC bid × 1",3.81 × 10^7 CFU/g
same,CFU/Drug Plate - Dilution 10^0,"[1]; 24 hr, SC bid × 1",+
same,CFU/Drug Plate - Dilution 10^−1,"[1]; 24 hr, SC bid × 1",780 CFU/Drug Plate and + (4×)
same,Mean CFU/g thigh muscle (SEM),"[1]; 48 hr, SC bid × 2",3.80 × 10^8 CFU/g
same,CFU/Drug Plate - Dilution 10^0,"[1]; 48 hr, SC bid × 2",+
same,CFU/Drug Plate - Dilution 10^−1,"[1]; 48 hr, SC bid × 2",+
same,Mean CFU/g thigh muscle (SEM),"[1]; 72 hr, SC bid × 3",1.48 × 10^9 CFU/g
same,CFU/Drug Plate - Dilution 10^0,"[1]; 72 hr, SC bid × 3",+
same,CFU/Drug Plate - Dilution 10^−1,"[1]; 72 hr, SC bid × 3",+
same,Mean CFU/g thigh muscle (SEM),"[1]; Day 8, SC bid × 7",all animals died
same,protection of the animals,[1]; LpxCi-5 at 35 mg/kg bid (70 mg/kg/day),provides protection to the animals out to 72 hours
same,"resistant CFU present at 24, 48 and 72 hours",[1]; LpxCi-5 at 35 mg/kg bid alone,> 10^3 CFU/thigh
same,total burden of CFU by 72 hours,[1]; LpxCi-5 at 35 mg/kg bid alone,> 10^9 CFU/thigh
same,in vivo synergy and suppression of emergence of resistant mutants,[1]; LpxCi-5 with Vancomycin,synergistic with Vancomycin in vivo
same,survival to Day 8,[1]; bid for seven consecutive days,All animals were dead by Day 8
"CC(C)(O)[C@H](NC(=O)c1ccc(C#CC#CC2CC2)cc1)C(=O)NO [LpxCi-6, (S)-4-(cyclopropylbuta-1,3-diynyl)-N-(3-hydroxy-1-(hydroxyamino)-3-methyl-1-oxobutan-2-yl)benzamide]","Static Dose, LpxC cmpd",K. pneumo. (ATCC43816); strain 43816,240
same,Fold Shift Static Dose,"K. pneumo. (ATCC43816); strain 43816, combination agent Vanco",3x
same,"Static Dose, LpxC in combination",K. pneumo. (ATCC43816); strain 43816,80
same,in vivo synergy with vancomycin,[2]; bacterial strain ATCC27853,in vivo synergy
same,"Static Dose, LpxC cmpd","[2]; strain 27853, LpxC compound alone",269
same,Fold Shift Static Dose,[2]; [6],1.8x
same,"Static Dose, LpxC in combination",[2]; [6],151
"Cc1onc(-c2ccccc2)c1C(=O)N[C@@H]1C(=O)N2[C@@H]1SC(C)(C)[C@@H]2C(=O)O [Oxacillin, oxacillin]",MIC,envA1 (D22) E. coli,16 µg/mL
same,ΔLogCFU vs 24 hr,"[2]; 24 hr, second block of Table 5, mg/kg/day b.i.d.: 3936 30, Eryth. 60, Dapto. 3, Oxacil. 100",−0.35
same,Log CFU Mean,"[2]; 24 hr, second block of Table 5, mg/kg/day b.i.d.: 3936 30, Eryth. 60, Dapto. 3, Oxacil. 100, n=5",7.29
same,in vivo synergy with LpxC inhibitors,"[2]; P. aeruginosa (ATCC27853), summary",modest but potentially useful in vivo synergy
